Where “and” joins values, the source holds several entries; their conditions need not be identical. Equal entries are not always repeated. Entries after “also recorded” stand apart in the source; their conditions may differ.
Target: T1, recombinant human LAT1 (Homo sapiens, UniProt Q01650)
T1 construct: made in house; host or cells: E. coli
Experiment: Inhibition of LAT1 mediated [3H]-His transport in proteoliposomes reconstituted with recombinant purified human LAT1
Format: biochemical
Design: Dose-response analysis, Mean / Dose-response analysis, single experiments: unit not given here
Conditions: for % Residual Activity: 100 µM concentration, n = 3, Table S6; for LAT1 inhibition, activity in words: 100 μM compound, [3H]-His uptake in proteoliposomes; for inhibition at 100 µM: 100 µM compound; for Dose-response analysis, single experiments: Exp. 1, Exp. 2, Exp. 3 in this order; for Dose-response analysis, Mean: mean of Exp. 1-3
Experimental: All 30 compounds were evaluated for their potency to inhibit LAT1 mediated histidine transport in proteoliposomes reconstituted with recombinant purified human LAT1 (see Methods). […]
Human LAT1 was over-expressed in E. coli and was purified as previously described. In brief, solubilized cell lysate was centrifuged (12,000× g, 10 min, 4 °C); supernatant was applied on a His-Trap HP column (5 mL Ni Sepharose) connected to ÄKTA start system. The column was equilibrated with 10 mL buffer (20 mM Tris HCl pH 8.0, 10% glycerol, 200 mM NaCl, 0.1% sarkosyl) prior to supernatant application. The column was washed with 10 mL buffer (20 mM Tris HCl pH 8.0, 10% glycerol, 200 mM NaCl, 0.05% DDM, and 2 mM DTE) and the protein was eluted with the same buffer plus 400 mM imidazole. Purified protein was desalted, in order to remove imidazole, using a PD-10 column in a buffer containing 20 mM Tris HCl pH 8.0, 10% glycerol, 0.05% DDM and 10 mM DTE.
The purified human LAT1 was reconstituted by detergent removal approach using the batch-wise method, as previously described. In brief, the initial mixture contained: 4 μg of purified protein, 100 μL of 10% C12E8, 100 μL of 10% egg yolk phospholipids (w/v) in the form of liposomes that were prepared as previously described, 20 mM Tris HCl pH 7.5, and 10 mM L-His in a final volume of 700 μL. This mixture was incubated with 0.5 g of Amberlite XAD-4 for 90 min at 23 °C, 1200 rpm to retain detergent.
To perform transport assays, the external substrate was removed by gel filtration chromatography: 600 μL of proteoliposomes were passed through a Sephadex G-75 column (0.7 cm diameter × 15 cm height) pre-equilibrated with 20 mM Tris HCl pH 7.5 and a concentration of sucrose to balance internal osmolarity. Transport was started adding 5 μM [^3H]-His to proteoliposomes and stopped after 30 min according to the stop inhibitor method, as previously described. In brief, in controls 1.5 µM HgCl2 was added at time zero and radioactivity was subtracted to samples for calculating net transport. After stopping the transport reaction, 100 μL of proteoliposomes was subjected to gel filtration chromatography using a Sephadex G-75 column (0.6 cm diameter × 8 cm height), to separate the external from the internal radioactivity. Proteoliposomes were eluted with 1 mL 50 mM NaCl in 4 mL scintillation mixture and counted. […] Protein concentration was estimated by Chemidoc imaging system1 [104] to calculate the human LAT1 specific activity.

T1 sequence (Q01650 whole entry): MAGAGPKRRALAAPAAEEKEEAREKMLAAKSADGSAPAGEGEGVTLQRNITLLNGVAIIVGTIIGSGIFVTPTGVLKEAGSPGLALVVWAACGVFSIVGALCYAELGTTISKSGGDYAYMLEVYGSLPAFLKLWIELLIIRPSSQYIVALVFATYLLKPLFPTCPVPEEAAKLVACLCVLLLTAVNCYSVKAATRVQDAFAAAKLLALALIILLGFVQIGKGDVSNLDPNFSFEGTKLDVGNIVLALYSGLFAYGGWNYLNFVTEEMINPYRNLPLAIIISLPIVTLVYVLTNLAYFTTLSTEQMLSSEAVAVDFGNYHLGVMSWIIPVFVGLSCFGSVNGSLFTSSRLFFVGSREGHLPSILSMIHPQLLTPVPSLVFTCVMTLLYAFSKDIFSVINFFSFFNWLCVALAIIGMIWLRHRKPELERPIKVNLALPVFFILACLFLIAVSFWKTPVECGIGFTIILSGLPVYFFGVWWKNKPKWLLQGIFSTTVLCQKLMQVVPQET

With `N#Cc1c(-c2ccccc2-c2ccco2)cc(-c2cc(C(=O)O)[nH]n2)nc1N` [Compound 13] the “% Residual Activity” value was 74.23%.
With `Cc1nnc(-c2ccccc2-c2ccc(CNS(C)(=O)=O)cc2)o1` [Compound 14] the “% Residual Activity” value was 95.87%.
In the case of `C=CCN(Cc1cccc(OCC(N)=O)c1)Cc1ccccc1C` [Compound 15], the “% Residual Activity” value is reported as 92.21%.
In the case of `CCn1cnnc1C(C)NC(=O)c1ccc2[nH]c(=O)c(=O)[nH]c2c1` (stereo not drawn) [Compound 16], the “% Residual Activity” value is reported as 95.1%.
With `CCCCN(Cc1ccsc1)C(=O)c1ccc(NS(=O)(=O)CC)cc1` [Compound 17] the “% Residual Activity” value was 94.75%.
For `CCOc1ccc(Cl)cc1-c1cccc(OCC(N)=O)c1` [Compound 18], the “% Residual Activity” value was 90.14%.
With `CCOc1ccccc1CN(Cc1cc(O)c(OC)cn1)C1CC1` [Compound 19] the “% Residual Activity” value was 93.06%.
In the case of `Cc1cc(OC(C)(C)C(=O)NCc2n[nH]c(=O)[nH]2)cc(C)c1Cl` [Compound 20], the “% Residual Activity” value is reported as 90.07%.
`Cc1sc2ccccc2c1CN1CCCn2nc(C(O)CO)cc2C1` (stereo not drawn) [Compound 21] was tested, and the “% Residual Activity” value was 85.14%.
With `O=C(c1ccc2[nH]c(CO)nc2c1)N(Cc1ccco1)Cc1cccs1` [Compound 22] the “% Residual Activity” value was 93.36%.
With `CN(Cc1ccon1)C(C(=O)O)c1ccc(-n2cccn2)cc1` (stereo not drawn) [Compound 23] the “% Residual Activity” value was 96.22%.
In the case of `CCOc1ccc(Cl)cc1C(C(=O)O)N(C)Cc1cnccn1` (stereo not drawn) [Compound 24], the “% Residual Activity” value is reported as 100.72%.
For `O=C(O)[C@@H]1C[C@H](n2cc(-c3ccccn3)nn2)CN1` [Compound 25], the “% Residual Activity” value was 94.12%.
For `Cc1cccnc1CN(C)C(C(=O)O)c1ccc(-n2cccn2)cc1` (stereo not drawn) [Compound 26], the “% Residual Activity” value was 89.37%.
In the case of `CC(C)COc1ccc(C(N)CC(=O)O)cc1` (stereo not drawn) [Compound 27], the “LAT1 inhibition, activity in words” value is reported as “slightly active” and the “% Residual Activity” value is reported as 67.96%.
`COc1ccc(CSCC(N)C(=O)O)cc1Br` (stereo not drawn) [Compound 28] was tested, and the IC50 (5 μM [3H]-His, proteoliposomes containing 10 mM His, mean ± S.D., three experiments) was 33.2 ± 4.5 µM, the inhibition at 100 µM was 80 to 100% and the “LAT1 inhibition, activity in words” value was “highly active”. The “% Residual Activity” value was 12.93%, the “Dose-response analysis, single experiments” value (0.1 [] M compound) was 98.56 and 118.69 and 87.20 and the “Dose-response analysis, Mean” value (0.1 [] M compound) was 101.48. The “Dose-response analysis, single experiments” value (0.2 [] M compound) was 109.35 and 122.43 and 93.48, the “Dose-response analysis, Mean” value (0.2 [] M compound) was 108.42 and the “Dose-response analysis, single experiments” value (0.5 [] M compound) was 112.59 and 110.90 and 85.27. The “Dose-response analysis, Mean” value (0.5 [] M compound) was 102.92, the “Dose-response analysis, single experiments” value (1 [] M compound) was 120.86 and 119.63 and 97.34 and the “Dose-response analysis, Mean” value (1 [] M compound) was 112.61. The “Dose-response analysis, single experiments” value (2.5 [] M compound) was 84.89 and 85.98 and 94.20, the “Dose-response analysis, Mean” value (2.5 [] M compound) was 88.36 and the “Dose-response analysis, single experiments” value (5 [] M compound) was 79.14 and 103.43 and 83.33. The “Dose-response analysis, Mean” value (5 [] M compound) was 88.63, the “Dose-response analysis, single experiments” value (10 [] M compound) was 96.40 and 89.72 and 73.19 and the “Dose-response analysis, Mean” value (10 [] M compound) was 86.44. The “Dose-response analysis, single experiments” value (25 [] M compound) was 57.91 and 52.02 and 47.58, the “Dose-response analysis, Mean” value (25 [] M compound) was 52.51 and the “Dose-response analysis, Mean” value (50 [] M compound) was 38.86. The “Dose-response analysis, Mean” value (100 [] M compound) was 24.50.
`CN(Cc1cc(Br)cc(Br)c1N)C1CCCCC1` [Compound 29] was tested, and the “% Residual Activity” value was 98.42%.
For `CN1CCCC(n2nc(Cc3ccc(Cl)cc3)c3ccccc3c2=O)CC1` (stereo not drawn) [Compound 30], the “% Residual Activity” value was 94.08%.
For `O=C(O)CNC(=O)c1nc(Cl)c2ccccc2c1O` [Compound 31], the “% Residual Activity” value was 91.83%.
In the case of `NC1(C(=O)O)CCCC1Cc1ccc(Cl)cc1` (stereo not drawn) [Compound 32], the “LAT1 inhibition, activity in words” value is reported as “moderately active; also recorded: modest affinity” and the “% Residual Activity” value is reported as 53.11%.
In the case of `NC(CSCc1cccc2ccccc12)C(=O)O` (stereo not drawn) [Compound 33], the inhibition at 100 µM is reported as 80 to 90%, the “LAT1 inhibition, activity in words” value is reported as “highly active” and the “% Residual Activity” value is reported as 17.86%.
In the case of `NC(Cc1cn(-c2ccccc2)nn1)C(=O)O` (stereo not drawn) [Compound 34], the “LAT1 inhibition, activity in words” value is reported as “slightly active” and the “% Residual Activity” value is reported as 77.12%.
With `NC(Cc1cccc(OCc2ccccc2)c1)C(=O)O` (stereo not drawn) [Compound 35] the inhibition at 100 µM was 80 to 90%, the “LAT1 inhibition, activity in words” value was “highly active” and the “% Residual Activity” value was 11.78%.

— paper PMC6337383, “Discovery of Potent Inhibitors for the Large Neutral Amino Acid Transporter 1 (LAT1) by Structure-Based Methods” (International Journal of Molecular Sciences, 2018)
